Reference: patent US20250064794A1, “A THERAPEUTIC COMBINATION COMPRISING A TIGIT ANTAGONIST, A PD-1 ANTAGONIST, AND LENVATINIB” (EISAI R&D MANAGEMENT CO., LTD., priority 2021, published 2025)

Experiments:
[1] = in vivo; cited from earlier work
[2] = system: CT26 tumor; test: Anti-tumor efficacy in CT26 tumor model; type: in vivo, female BALB/c mice
Description: The present Example describes anti-tumor effects of a combination of a TIGIT antagonist, a PD-1 antagonist and lenvatinib using a CT26 tumor model.
Prior to treatment initiation, female BALB/c mice aged 8 weeks weighing between 18 to 21 grams were anesthetized and subcutaneously injected into the rear flank with 0.3×10^6 CT26 log-phase sub-confluent cells. When the mean tumor volume of inoculated animals with CT26 reached approximately 146 mm^3 (13 days later) mice were pair-matched into 8 treatment groups consisting of 10 mice per group.
Antibody Reagents in this Example Include: • Anti-PD-1 mIgG1 antibody, which is a murinized version of a rat anti-mouse PDT Ab with a mouse IgG1 Fe; • Anti-TIGIT mIgG2a antibody having a mouse Fe region of mIgG2a subtype that is the murine counterpart isotype to human isotype IgG1; • Isotype mIgG1 antibody, which is a mouse IgG1 isotype-matched control monoclonal antibody specific for adenoviral hexon 25; and • Isotype mIgG2a antibody, which is a mouse IgG2a isotype-matched control monoclonal antibody specific for adenoviral hexon 25.
• 1) 0.5% methylcellulose (Vehicle)+isotype mIgG1 antibody+isotype mIgG2a antibody; • 2) Vehicle+anti-PD-1 mIgG1 antibody+isotype mIgG1 antibody; • 3) Vehicle+isotype mIgG1 antibody+anti-TIGIT mIgG2a antibody; • 4) Lenvatinib+isotype mIgG1 antibody+isotype mIgG2a antibody; • 5) Vehicle+anti-PD-1 mIgG1 antibody+anti-TIGIT mIgG2a antibody; • 6) Lenvatinib+anti-PD-1 mIgG1 antibody+isotype mIgG2a antibody; • 7) Lenvatinib+isotype mIgG1 antibody+anti-TIGIT mIgG2a antibody; and • 8) Lenvatinib+anti-PD-1 mIgG1 antibody+anti-TIGIT mIgG2a antibody.
Vehicle and lenvatinib were orally gavage-dosed once daily (QD) at 10 mg/kg body weight. Isotype control, a mouse monoclonal antibody specific for adenoviral hexon on IgG1 or IgG2a backbones, as well as anti-PD-1 and anti-TIGIT antibodies were dosed intraperitoneally every 5 days at 10 mg/kg body weight. Start of treatments was considered Day 0 and dosing based on described schedules continued as described until Day 40. […]

[3] = Day 40, 10 mice per group, lenvatinib 10 mg/kg QD, antibodies 10 mg/kg IP every 5 days

For `COc1cc2nccc(Oc3ccc(NC(=O)NC4CC4)c(Cl)c3)c2cc1C(N)=O` [Lenvatinib monotherapy, 4-[3-chloro-4-(cyclopropylaminocarbonyl)aminophenoxy]-7-methoxy-6-quinolinecarboxamide], the half-life [1] is listed as 28 h, the “TGI at Day 12” value ([2]; CT26 s.c. tumors, treatment started at 146 mm^3, lenvatinib 10 mg/kg orally QD, antibodies 10 mg/kg intraperitoneally every 5 days, vs Vehicle group at Day 12) is listed as 36% (p = 0.014) and the “End of study CRs (complete tumor regressions)” value [2, 3] is listed as 0 CRs, 0 PRs. The “End of study PRs (partial tumor regressions)” value [2, 3] was 0 CRs, 0 PRs.
